Test results from patent publication US20220023196A1, “COSMETIC COMPOSITION FOR SKIN IMPROVEMENT COMPRISING GREEN BARLEY EXTRACT” (AMI COSMETIC CO., LTD., priority 2020, published 2022).

Columns and labels:
filaggrin (FLG) = test: FLG production in HaCaT cells (Filaggrin-ELISA kit); type: cell-based; conditions: for Increase in FLG production (%): 24 hours, Concentration 50 (unit not given), Control = 100
Description: (§1) HaCaT cells were dispensed into a 24-well plate at 1.0×10^5 cells/mL and cultured under the conditions of 37° C. and 5% CO2 for 18 hours. After the medium was replaced with serum-free DMEM, the cells were treated with a sample and then cultured for 24 hours. Subsequently, the culture solution was removed, and each group was washed with PBS and then treated with PBS containing no drugs that could interfere with the quantification of proteins. The cells were lysed through repeated switching between low-temperature incubation and room-temperature incubation, and the proteins were collected. The quantification was performed, using a Filaggrin-ELISA kit (Elabscience Biotechnology Co., Ltd.), according to the method specified by the manufacturer.
In order to evaluate the skin barrier strengthening effect of Examples 1 to 6 and Comparative Examples 1 to 5, an experiment was conducted to evaluate the effect of increasing the production of FLG.
The production amount of FLG was measured in the same manner as in Experimental Example 3-1.

hyaluronic acid (HA) = test: HA production in HaCaT cells (hyaluronic acid ELISA kit); type: cell-based; conditions: 24 hours; for Increase in HA production (%): Concentration 50 (unit not given), Control = 100
Description: HaCaT cells were dispensed into a 24-well plate at 1.0×10^5 cells/mL and cultured under the conditions of 37° C. and 5% CO2 for 18 hours. After the medium was replaced with serum-free DMEM, the cells were treated with a sample and then cultured for 24 hours. Subsequently, the culture medium was collected and centrifuged at 15,000 rpm for five minutes, and the supernatant was collected and stored frozen (−20° C.) until quantified. Enzyme-linked immunosorbent assay (ELISA) was conducted, using a hyaluronic acid ELISA kit (Elabscience Biotechnology Co., Ltd.), according to the method specified by the manufacturer.
In order to evaluate the moisturizing effect of Examples 1 to 6 and Comparative Examples 1 to 5, an experiment was conducted to evaluate an HA production increasing effect.
The HA production amount was measured in the same manner as in Experimental Example 3-2.

aquaporin 3 (AQP3) = test: AQP3 production in HaCaT cells (AQP3-ELISA kit); type: cell-based; conditions: 24 hours; for Increase in AQP3 production (%): Concentration 50 (unit not given), Control = 100
Description: as §1, with “In addition, HaCaT cells” for “HaCaT cells”, “cells/mL and then cultured under” for “cells/mL and cultured under”, “performed, using an AQP3-ELISA kit (Elabscience” for “performed, using a Filaggrin-ELISA kit (Elabscience”
In order to evaluate the moisturizing effect of Examples 1 to 6 and Comparative Examples 1 to 5, an experiment was conducted to evaluate an AQP3 production increasing effect.
The AQP3 production amount was measured in the same manner as in Experimental Example 3-2.

sensitive skin = test: Human patch test for skin irritation on sensitive skin; type: in vivo
Description: A test was conducted to evaluate the suitability and safety of use of soothing gel, lotion, cream, body wash, and foam cleanser formulations including a composition including the ceramide and green barley extract of the present invention. The inventors requested the OATC Skin Clinical Trials Center to perform a human application test, and the test was conducted in accordance with the cosmetics guidelines of Korea's Ministry of Food and Drug Safety, Declaration of Helsinki, and OATC Skin Clinical Trials Center's SOP.
In order to classify the test subjects according to skin type, the test subjects were screened by a stinging test to identify those with sensitive skin, wherein steam was applied to their faces for 10 minutes using a steamer to make their skin sensitive, and subsequently, each of 10% lactic acid and distilled water (D.W.) was applied to the nasolabial folds on either side of the nose.
After the test subject's test site was wiped off with 70% ethanol and dried, 25 μl of a test product was applied dropwise to IQ Ultra, which was then attached and fixed to the test site. At 30 minutes, 24 hours, and 48 hours after removing the patch, the level of irritation was evaluated by two experts using, as a standard, the evaluation method devised by Frosch & Kligman and employing the reading standards of the International Contact Dermatitis Research Group (ICDRG).
In addition, safety zones were established, and an experiment was conducted while using the safety zones as criteria for evaluating the likelihood of causing irritation.

| Compound | Increase in FLG production (%) (filaggrin (FLG)) | Increase in HA production (%) (hyaluronic acid (HA)) | Increase in AQP3 production (%) (aquaporin 3 (AQP3)) | other results |
| --- | --- | --- | --- | --- |
| O=c1cc(-c2ccc(O)cc2)oc2cc(O[C@@H]3O[C@H](CO)[C@@H](O)[C@H](O)[C@H]3O)c([C@@H]3O[C@H](CO)[C@@H](O)[C@H](O)[C@H]3O)c(O)c12 [saponarin, 5-hydroxy-2-(4-hydroxyphenyl)-6-[3,4,5-trihydroxy-6-(hydroxymethyl)oxan-2-yl]-7-[3,4,5-trihydroxy-6-(hydroxymethyl)oxan-2-yl]oxychromen-4-one] | – | – | – | Increase of the expression level of FLG compared to the control (filaggrin (FLG); 24 hours (FIG. 6)): 29.87%; Production of HA (result in words) (hyaluronic acid (HA)): significantly increased the production of skin moisturizing factors; Production of AQP3 (result in words) (aquaporin 3 (AQP3)): significantly increased the production of skin moisturizing factors |
| CCCCCCCCCCCCC/C=C/C(O)C(CO)NC(=O)CCCCCCCCCCCCCCCCCCCCCC (stereo not drawn) [Comparative Example 2, Ceramide NS] | 116.7 | 94.5 | 118.5 | – |
| CCCCCCCCCCCCOS(=O)(=O)[O-].[Na+] [1% SLS] | – | – | – | Sum of skin irritation reaction intensity 1st (sensitive skin; 1st reading, patch test): 4.00; Sum of skin irritation reaction intensity 2nd (sensitive skin; 2nd reading, patch test): 4.00; Sum of skin irritation reaction intensity 3rd (sensitive skin; 3rd reading, patch test): 3.06; Irritation of level ++ or more in >10% of test subjects (sensitive skin; conformity criterion): Conforming; Safety zone (sensitive skin; conformity to safety zone of Table 20): Conforming; Skin irritation index (sensitive skin; patch test): 3.06 |
| CCCCCCCCCCCCCCCCCCCCCC(O)C(=O)NC(CO)C(O)C(O)CCCCCCCCCCCCCC (stereo not drawn) [Comparative Example 5, Ceramide AP] | 129.9 | 95.2 | 113.7 | – |
| CCCCCCCCCCCCC/C=C/C(O)C(CO)NC(=O)C(O)CCCCCCCCCCCCCCCCCCCCC (stereo not drawn) [Comparative Example 4, Ceramide AS] | 122.4 | 94.6 | 114.5 | – |
| CCCCCCCCCCCCCCCCCCCCCCC(=O)NC(CO)C(O)C(O)CCCCCCCCCCCCCC (stereo not drawn) [Comparative Example 3, Ceramide NP] | 115.5 | 93.2 | 114.6 | – |
| Ceramide EOP [Comparative Example 1] | 119.5 | 93.0 | 117.5 | – |
